# In patent publication US12138263B2, “Pyrazolo[3,4-b]pyrazine SHP2 phosphatase inhibitors and methods of use thereof” (Relay Therapeutics, Inc., priority 2018, dated 2024):
# Counter-ions that a name gives are not always drawn.
# Target: SHP2 (Homo sapiens (Human), UniProt Q06124)
# Assay: SHP2 allosteric inhibition assay (DiFMUP prompt fluorescence)
# Type: biochemical
# Conditions: 0.25 nM SHP2 with 0.5 μM peptide IRS1_pY1172(dPEG8)pY1222, substrate DiFMUP 100 μM
IC50 (Table 2) [µM],IC50 (Table 3) [µM],SMILES,further results
–,–,O=S(=O)(F)Oc1ccc2c(c1)CCCN2c1n[nH]c2nc(N3CCCCC3)cnc12 [Compound 1A],IC50 (Table 1): ≥ 10 µM
< 1,–,"COC(=O)C1(c2cnc3c(-c4cccc(Cl)c4F)n[nH]c3n2)CCNCC1 [Compound 1B, methyl 4-(3-(3-chloro-2-fluorophenyl)-1H-pyrazolo[3,4-b]pyrazin-6-yl)piperidine-4-carboxylate]",–
–,< 1,CC1(CN)CCN(c2nc3[nH]nc(-c4cccc(Cl)c4F)c3nc2C#N)CC1 [Compound 1C],–
–,–,"CN(c1cnc2c(-c3cccc(Cl)c3F)n[nH]c2n1)c1ncccc1CN [Compound 1D, N-(3-(aminomethyl)pyridin-2-yl)-3-(3-chloro-2-fluorophenyl)-N-methyl-1H-pyrazolo[3,4-b]pyrazin-6-amine]",IC50 (Table 4): < 1 µM
–,–,O=S(=O)(F)Oc1cccc2c1CCCN2c1n[nH]c2nc(N3CCCCC3)cnc12 [Compound 2A],IC50 (Table 1): ≥ 10 µM
< 1,–,Fc1c(Cl)cccc1-c1n[nH]c2nc(C3CCNCC3)cnc12 [Compound 2B],–
–,< 1,CC1(CN)CCN(c2nc3[nH]nc(-c4cccc(Cl)c4F)c3nc2C(N)=O)CC1 [Compound 2C],–
–,–,"CN(c1cnc2c(-c3cccc(Cl)c3F)n[nH]c2n1)c1ncccc1CCN [Compound 2D, N-(3-(2-aminoethyl)pyridin-2-yl)-3-(3-chloro-2-fluorophenyl)-N-methyl-1H-pyrazolo[3,4-b]pyrazin-6-amine]",IC50 (Table 4): < 1 µM
–,–,CC1(CN)CCN(c2cnc3c(N4CCCc5c(OS(=O)(=O)F)cccc54)n[nH]c3n2)CC1 [Compound 3A],IC50 (Table 1): < 1 µM
< 1,–,NC(=O)C1(c2cnc3c(-c4cccc(Cl)c4F)n[nH]c3n2)CCNCC1 [Compound 3B],–
–,< 1,"CC1(N)CCN(c2nc3[nH]nc(-c4cccc(Cl)c4F)c3nc2C(N)=O)CC1 [Compound 3C, 6-(4-amino-4-methylpiperidin-1-yl)-3-(3-chloro-2-fluorophenyl)-1H-pyrazolo[3,4-b]pyrazine-5-carboxamide]",–
–,–,"CN(c1cnc2c(N3CCCc4ncccc43)n[nH]c2n1)c1ncccc1CCN [Compound 3D, N-(3-(2-aminoethyl)pyridin-2-yl)-3-(3,4-dihydro-1,5-naphthyridin-1(2H)-yl)-N-methyl-1H-pyrazolo[3,4-b]pyrazin-6-amine]",IC50 (Table 4): 1 to 10 µM
–,–,O=S(=O)(F)c1cccc2c1CCCN2c1n[nH]c2nc(N3CCCCC3)cnc12 [Compound 4A],IC50 (Table 1): ≥ 10 µM
< 1,–,OCC1(c2cnc3c(-c4cccc(Cl)c4F)n[nH]c3n2)CCNCC1 [Compound 4B],–
–,1 to 10,"CC1(N)CCN(c2nc3[nH]nc(-c4cccc(Cl)c4F)c3nc2C(=O)O)CC1 [Compound 4C, 6-(4-amino-4-methylpiperidin-1-yl)-3-(3-chloro-2-fluorophenyl)-1H-pyrazolo[3,4-b]pyrazine-5-carboxylic Acid]",–
1 to 10,–,NC1CCN(C(=O)c2cnc3c(-c4cccc(Cl)c4F)n[nH]c3n2)C1 (stereo not shown) [Compound 5B],–
–,< 1,"CC1(CN)CCN(c2nc3[nH]nc(N4CCCc5ncccc54)c3nc2O)CC1 [Compound 5C, 6-(4-(aminomethyl)-4-methylpiperidin-1-yl)-3-(3,4-dihydro-1,5-naphthyridin-1(2H)-yl)-1H-pyrazolo[3,4-b]pyrazin-5-ol]",–
–,–,CC1(CN)CCN(c2cnc3c(N4CCCc5cc(OS(=O)(=O)F)ccc54)n[nH]c3n2)CC1 [Compound 6A],IC50 (Table 1): < 1 µM
≥ 10,–,CC1(CN)CCN(C(=O)c2cnc3c(-c4cccc(Cl)c4F)n[nH]c3n2)C1 (stereo not shown) [Compound 6B],–
–,< 1,"Cc1nc2c(N3CCCc4ncccc43)n[nH]c2nc1N1CCC(C)(CN)CC1 [Compound 6C, (1-(3-(3,4-dihydro-1,5-naphthyridin-1(2H)-yl)-5-methyl-1H-pyrazolo[3,4-b]pyrazin-6-yl)-4-methylpiperidin-4-yl)methanamine]",–
–,–,"C[C@@H]1OCC2(CCN(c3cnc4c(N5CCCc6cc(OS(=O)(=O)F)ccc65)n[nH]c4n3)CC2)[C@@H]1N [Compound 7A, 1-(6-((3S,4S)-4-amino-3-methyl-2-oxa-8-azaspiro[4.5]decan-8-yl)-1H-pyrazolo[3,4-b]pyrazin-3-yl)-1,2,3,4-tetrahydroquinolin-6-yl Sulfurofluoridate]",IC50 (Table 1): < 1 µM
≥ 10,–,CN(CCN)C(=O)c1cnc2c(-c3cccc(Cl)c3F)n[nH]c2n1 [Compound 7B],–

IC50 (Table 2) [µM],IC50 (Table 3) [µM],SMILES,further results
–,< 1,"CC1(CN)CCN(c2nc3[nH]nc(N4CCCc5ncccc54)c3nc2C#N)CC1 [Compound 7C, 6-[4-(aminomethyl)-4-methylpiperidin-1-yl]-3-(1,2,3,4-tetrahydro-1,5-naphthyridin-1-yl)-1H-pyrazolo[3,4-b]pyrazine-5-carbonitrile]",–
–,–,O=S(=O)(F)Oc1cnc2c(N3CCCc4ncccc43)n[nH]c2n1 [Compound 8A],IC50 (Table 1): ≥ 10 µM
< 1,–,OC1(c2cnc3c(-c4cccc(Cl)c4F)n[nH]c3n2)CCNCC1 [Compound 8B],–
–,< 1,"CC1(CN)CCN(c2nc3[nH]nc(N4CCCc5ncccc54)c3nc2C(N)=O)CC1 [Compound 8C, 6-[4-(aminomethyl)-4-methylpiperidin-1-yl]-3-(1,2,3,4-tetrahydro-1,5-naphthyridin-1-yl)-1H-pyrazolo[3,4-b]pyrazine-5-carboxamide]",–
≥ 10,–,"NCc1ccn(Cc2cnc3c(-c4cccc(Cl)c4F)n[nH]c3n2)n1 [Compound 9B, (1-((3-(3-chloro-2-fluorophenyl)-1H-pyrazolo[3,4-b]pyrazin-6-yl)methyl)-1H-pyrazol-3-yl)methanamine]",–
–,< 1,"COC(=O)c1nc2c(N3CCCc4ncccc43)n[nH]c2nc1N1CCC(C)(CN)CC1 [Compound 9C, methyl 6-[4-(aminomethyl)-4-methylpiperidin-1-yl]-3-(1,2,3,4-tetrahydro-1,5-naphthyridin-1-yl)-1H-pyrazolo[3,4-b]pyrazine-5-carboxylate]",–
≥ 10,–,"NCc1ccccc1-c1cnc2c(N3CCCc4ncccc43)n[nH]c2n1 [Compound 10B, (2-(3-(3,4-dihydro-1,5-naphthyridin-1(2H)-yl)-1H-pyrazolo[3,4-b]pyrazin-6-yl)phenyl)methanamine]",–
–,< 1,"COc1nc2c(N3CCCc4ncccc43)n[nH]c2nc1N1CCC2(CC1)CO[C@@H](C)[C@H]2N [Compound 10C, (3S,4S)-8-[5-methoxy-3-(1,2,3,4-tetrahydro-1,5-naphthyridin-1-yl)-1H-pyrazolo[3,4-b]pyrazin-6-yl]-3-methyl-2-oxa-8-azaspiro[4.5]decan-4-amine dihydrochloride]",–
≥ 10,–,"CC(C)(CN)c1cnc2c(-c3cccc(Cl)c3F)n[nH]c2n1 [Compound 11B, 2-[3-(3-chloro-2-fluorophenyl)-1H-pyrazolo[3,4-b]pyrazin-6-yl]-2-methylpropan-1-amine]",–
–,< 1,"CC1(CN)CCN(c2nc3[nH]nc(N4CCCc5ncccc54)c3nc2CO)CC1 [Compound 11C, (6-(4-(aminomethyl)-4-methylpiperidin-1-yl)-3-(3,4-dihydro-1,5-naphthyridin-1(2H)-yl)-1H-pyrazolo[3,4-b]pyrazin-5-yl)methanol]",–
≥ 10,–,"CC(C)(CN)c1cnc2c(N3CCCc4ncccc43)n[nH]c2n1 [Compound 12B, 2-(3-(3,4-dihydro-1,5-naphthyridin-1(2H)-yl)-1H-pyrazolo[3,4-b]pyrazin-6-yl)-2-methylpropan-1-amine]",–
–,< 1,"C[C@@H]1OCC2(CCN(c3nc4[nH]nc(N5CCCc6ncccc65)c4nc3C#N)CC2)[C@@H]1N [Compound 12C, 6-[(3S,4S)-4-amino-3-methyl-2-oxa-8-azaspiro[4.5]decan-8-yl]-3-(1,2,3,4-tetrahydro-1,5-naphthyridin-1-yl)-1H-pyrazolo[3,4-b]pyrazine-5-carbonitrile]",–
≥ 10,–,NCC1CCCCN1C(=O)c1cnc2c(-c3cccc(Cl)c3F)n[nH]c2n1 (stereo not shown) [Compound 13B],–
–,< 1,"Cc1nc2c(N3CCCc4ncccc43)n[nH]c2nc1N1CCC2(CC1)CO[C@@H](C)[C@H]2N [Compound 13C, (3S,4S)-8-(3-(3,4-dihydro-1,5-naphthyridin-1(2H)-yl)-5-methyl-1H-pyrazolo[3,4-b]pyrazin-6-yl)-3-methyl-2-oxa-8-azaspiro[4.5]decan-4-amine]",–
–,< 1,"C[C@@H]1OCC2(CCN(c3nc4[nH]nc(N5CCCc6ncccc65)c4nc3CO)CC2)[C@@H]1N [Compound 14C, (6-((3S,4S)-4-amino-3-methyl-2-oxa-8-azaspiro[4.5]decan-8-yl)-3-(3,4-dihydro-1,5-naphthyridin-1(2H)-yl)-1H-pyrazolo[3,4-b]pyrazin-5-yl)methanol]",–
–,< 1,COCc1nc2c(N3CCCc4ncccc43)n[nH]c2nc1N1CCC(C)(CN)CC1 [Compound 15C],–
–,< 1,CC1(CN)CCN(c2nc3[nH]nc(N4CCCc5c4cccc5S(C)(=O)=O)c3nc2CO)CC1 [Compound 16C],–
–,< 1,C[C@@H]1OCC2(CCN(c3nc4[nH]nc(N5CC[C@H](C)c6cc(C#N)ccc65)c4nc3CO)CC2)[C@@H]1N [Compound 17C],–
< 1,–,"C[C@H]1CCN(c2n[nH]c3nc([C@H]4CC[C@@H](CN)CC4)cnc23)c2ccc(C#N)cc21 [Compound 18B, (4S)-4-methyl-1-{6-[(1r,4r)-4-(aminomethyl)cyclohexyl]-1H-pyrazolo[3,4-b]pyrazin-3-yl}-1,2,3,4-tetrahydroquinoline-6-carbonitrile]",–
1 to 10,–,"C[C@H]1CCN(c2n[nH]c3nc([C@H]4CC[C@H](CN)CC4)cnc23)c2ccc(C#N)cc21 [Compound 19B, (4S)-4-methyl-1-{6-[(1s,4s)-4-(aminomethyl)cyclohexyl]-1H-pyrazolo[3,4-b]pyrazin-3-yl}-1,2,3,4-tetrahydroquinoline-6-carbonitrile]",–
–,< 1,C[C@@H]1OCC2(CCN(c3nc4[nH]nc(-c5cccc(Cl)c5F)c4nc3CO)CC2)[C@@H]1N [Compound 19C],–
